Experimental data taken from publication PMC5762204 (Journal of Pharmaceutical Analysis, 2014).

Assay: Pharmacokinetic study in rats after oral administration
Format: in vivo
Conditions: male, Wistar, rat, plasma

| Structure (SMILES) | Tmax [h] | half-life [h] |
| --- | --- | --- |
| N[C@@H](CC(=O)N1CCn2c(nnc2C(F)(F)F)C1)Cc1cc(F)c(F)cc1F [Sitagliptin, sitagliptin] | 1 | 6.1 ± 0.2 |
| CCC(C)(C)C(=O)O[C@H]1C[C@@H](C)C=C2C=C[C@H](C)[C@H](CC[C@@H]3C[C@@H](O)CC(=O)O3)[C@H]21 [Simvastatin, simvastatin] | 0.75 | 5.6 ± 0.1 |
